Data from ChEMBL document CHEMBL4043281, “Development of a peptide-based inducer of protein degradation targeting NOTCH1” (Bioorg Med Chem Lett, 2017).
Calls of active or inactive are those of the source. The rule behind the calls is not given here. Positions of bridges follow the written chain, without caps; N, C: chain ends. Non-standard residues stand in square brackets, D forms with d. Residues, ends and D or L forms follow the SMILES beside them. Dip = N[C@H](C(=O)O)C(c1ccccc1)c1ccccc1; Chg = N[C@H](C(=O)O)C1CCCCC1; S5 = C=CCCC[C@](C)(N)C(=O)O; NMeA = CN[C@@H](C)C(=O)O; AEEA = NCCOCCOCC(=O)O; βAla = NCCC(=O)O

Legend:
Homo sapiens [1] = species on record: Homo sapiens; assay: Induction of IAP-mediated NOTCH1 protein degradation in human MOLT4 cells assessed as ratio of NOTCH1 to lamin protein level at 20 uM after 6 hrs by Western blot analysis (reference value: 100%); assay type: cell-based
Homo sapiens [2] = species on record: Homo sapiens; assay: Induction of IAP-mediated NOTCH1 protein degradation in human MOLT4 cells assessed as ratio of NOTCH1 to lamin protein level at 50 uM after 6 hrs by Western blot analysis (reference value: 100%); assay type: cell-based
Homo sapiens [3] = species on record: Homo sapiens; assay: Induction of IAP-mediated NOTCH1 protein degradation in human MOLT4 cells assessed as ratio of NOTCH1 to lamin protein level at 100 uM after 6 hrs by Western blot analysis (reference value: 100%); assay type: cell-based
MOLT-4 [4] = assay: Induction of CSL protein degradation in human MOLT4 cells assessed as ratio of CSL to lamin protein level at 20 uM after 6 hrs by Western blot analysis (reference value: 100%); assay type: functional
MOLT-4 [5] = assay: Induction of CSL protein degradation in human MOLT4 cells assessed as ratio of CSL to lamin protein level at 50 uM after 6 hrs by Western blot analysis (reference value: 100%); assay type: functional
MOLT-4 [6] = assay: Induction of CSL protein degradation in human MOLT4 cells assessed as ratio of CSL to lamin protein level at 100 uM after 6 hrs by Western blot analysis (reference value: 100%); assay type: functional
MOLT-4 [7] = assay: Cytotoxicity against human MOLT4 cells at >100 uM; assay type: cell-based
Homo sapiens [8] = species on record: Homo sapiens; assay: Induction of IAP-mediated NOTCH1 protein degradation in human MOLT4 cells assessed as ratio of NOTCH1 to lamin protein level at 20 uM after 6 hrs by Western blot analysis (reference value: 91%); assay type: cell-based
Homo sapiens [9] = species on record: Homo sapiens; assay: Induction of IAP-mediated NOTCH1 protein degradation in human MOLT4 cells assessed as ratio of NOTCH1 to lamin protein level at 50 uM after 6 hrs by Western blot analysis (reference value: 91%); assay type: cell-based
Homo sapiens [10] = species on record: Homo sapiens; assay: Induction of IAP-mediated NOTCH1 protein degradation in human MOLT4 cells assessed as ratio of NOTCH1 to lamin protein level at 100 uM after 6 hrs by Western blot analysis (reference value: 91%); assay type: cell-based
MOLT-4 [11] = assay: Induction of CSL protein degradation in human MOLT4 cells assessed as ratio of CSL to lamin protein level at 20 uM after 6 hrs by Western blot analysis (reference value: 111%); assay type: functional
MOLT-4 [12] = assay: Induction of CSL protein degradation in human MOLT4 cells assessed as ratio of CSL to lamin protein level at 50 uM after 6 hrs by Western blot analysis (reference value: 111%); assay type: functional
MOLT-4 [13] = assay: Induction of CSL protein degradation in human MOLT4 cells assessed as ratio of CSL to lamin protein level at 100 uM after 6 hrs by Western blot analysis (reference value: 111%); assay type: functional
Homo sapiens [14] = species on record: Homo sapiens; assay: Induction of IAP-mediated NOTCH1 protein degradation in human MOLT4 cells assessed as ratio of NOTCH1 to lamin protein level at 60 uM after 6 hrs by Western blot analysis (reference value: 100%); assay type: cell-based
Homo sapiens [15] = species on record: Homo sapiens; assay: Induction of IAP-mediated NOTCH1 protein degradation in human MOLT4 cells assessed as ratio of NOTCH1 to lamin protein level at 70 uM after 6 hrs by Western blot analysis (reference value: 100%); assay type: cell-based
Homo sapiens [16] = species on record: Homo sapiens; assay: Induction of IAP-mediated NOTCH1 protein degradation in human MOLT4 cells assessed as ratio of NOTCH1 to lamin protein level at 80 uM after 6 hrs by Western blot analysis (reference value: 100%); assay type: cell-based
MOLT-4 [17] = assay: Induction of CSL protein degradation in human MOLT4 cells assessed as ratio of CSL to lamin protein level at 60 uM after 6 hrs by Western blot analysis (reference value: 100%); assay type: functional
MOLT-4 [18] = assay: Induction of CSL protein degradation in human MOLT4 cells assessed as ratio of CSL to lamin protein level at 70 uM after 6 hrs by Western blot analysis (reference value: 100%); assay type: functional
MOLT-4 [19] = assay: Induction of CSL protein degradation in human MOLT4 cells assessed as ratio of CSL to lamin protein level at 80 uM after 6 hrs by Western blot analysis (reference value: 100%); assay type: functional
Homo sapiens [20] = species on record: Homo sapiens; assay: Induction of IAP-mediated NOTCH1 protein degradation in human MOLT4 cells assessed as reduction in c-Myc level at 80 uM by Western blot analysis; assay type: cell-based; conditions: TDE = time-dependent effect
Homo sapiens [21] = species on record: Homo sapiens; assay: Antagonist activity IAP in human MOLT4 cells assessed as reduction in cIAP1 protein level at 50 to 80 uM after 6 hrs by Western blot analysis; assay type: cell-based
Homo sapiens [22] = species on record: Homo sapiens; assay: Induction of IAP-mediated NOTCH1 protein degradation in human MOLT4 cells assessed as ratio of NOTCH1 to beta-actin protein level at 80 uM after 2 hrs by Western blot analysis (reference value: 100%); assay type: cell-based
Homo sapiens [23] = species on record: Homo sapiens; assay: Induction of IAP-mediated NOTCH1 protein degradation in human MOLT4 cells assessed as ratio of NOTCH1 to beta-actin protein level at 80 uM after 4 hrs by Western blot analysis (reference value: 100%); assay type: cell-based
Homo sapiens [24] = species on record: Homo sapiens; assay: Induction of IAP-mediated NOTCH1 protein degradation in human MOLT4 cells assessed as ratio of NOTCH1 to beta-actin protein level at 80 uM after 6 hrs by Western blot analysis (reference value: 100%); assay type: cell-based
Homo sapiens [25] = species on record: Homo sapiens; assay: Induction of IAP-mediated NOTCH1 protein degradation in human MOLT4 cells assessed as ratio of NOTCH1 to beta-actin protein level at 80 uM after 8 hrs by Western blot analysis (reference value: 100%); assay type: cell-based
Homo sapiens [26] = species on record: Homo sapiens; assay: Induction of IAP-mediated NOTCH1 protein degradation in human MOLT4 cells assessed as ratio of NOTCH1 to beta-actin protein level at 80 uM after 10 hrs by Western blot analysis (reference value: 100%); assay type: cell-based
Homo sapiens [27] = species on record: Homo sapiens; assay: Induction of IAP-mediated NOTCH1 protein degradation in human MOLT4 cells assessed as reduction in c-Myc level by measuring ratio of c-Myc to beta-actin protein level at 80 uM after 2 hrs by Western blot analysis (reference value: 100%); assay type: cell-based
Homo sapiens [28] = species on record: Homo sapiens; assay: Induction of IAP-mediated NOTCH1 protein degradation in human MOLT4 cells assessed as reduction in c-Myc level by measuring ratio of c-Myc to beta-actin protein level at 80 uM after 4 hrs by Western blot analysis (reference value: 100%); assay type: cell-based
Homo sapiens [29] = species on record: Homo sapiens; assay: Induction of IAP-mediated NOTCH1 protein degradation in human MOLT4 cells assessed as reduction in c-Myc level by measuring ratio of c-Myc to beta-actin protein level at 80 uM after 6 hrs by Western blot analysis (reference value: 100%); assay type: cell-based
Homo sapiens [30] = species on record: Homo sapiens; assay: Induction of IAP-mediated NOTCH1 protein degradation in human MOLT4 cells assessed as reduction in c-Myc level by measuring ratio of c-Myc to beta-actin protein level at 80 uM after 8 hrs by Western blot analysis (reference value: 100%); assay type: cell-based
Homo sapiens [31] = species on record: Homo sapiens; assay: Induction of IAP-mediated NOTCH1 protein degradation in human MOLT4 cells assessed as reduction in c-Myc level by measuring ratio of c-Myc to beta-actin protein level at 80 uM after 10 hrs by Western blot analysis (reference value: 100%); assay type: cell-based
Homo sapiens [32] = species on record: Homo sapiens; assay: Induction of IAP-mediated NOTCH1 protein degradation in human MOLT4 cells assessed as ratio of NOTCH1 to lamin protein level at 60 uM after 6 hrs in presence of proteasome inhibitor MG132 by Western blot analysis (reference value: 100%); assay type: cell-based
Homo sapiens [33] = species on record: Homo sapiens; assay: Induction of IAP-mediated NOTCH1 protein degradation in human MOLT4 cells assessed as ratio of NOTCH1 to lamin protein level at 70 uM after 6 hrs in presence of proteasome inhibitor MG132 by Western blot analysis (reference value: 100%); assay type: cell-based
Homo sapiens [34] = species on record: Homo sapiens; assay: Induction of IAP-mediated NOTCH1 protein degradation in human MOLT4 cells assessed as ratio of NOTCH1 to lamin protein level at 80 uM after 6 hrs in presence of proteasome inhibitor MG132 by Western blot analysis (reference value: 100%); assay type: cell-based

SMILES: CC[C@H](C)[C@H](NC(=O)[C@H](CCCNC(=N)N)NC(=O)[C@H](CCCNC(=N)N)NC(=O)[C@H](CCCNC(=N)N)NC(=O)[C@H](CC(C)C)NC(=O)[C@H](CCCNC(=N)N)NC(=O)[C@H](CCC(=O)O)NC(=O)CCN)C(=O)N[C@@H](CCC(=O)O)C(=O)N[C@@H](CC(C)C)C(=O)N[C@@H](CS)C(=O)N[C@@H](CCCNC(=N)N)C(=O)N[C@@H](CCCNC(=N)N)C(=O)N[C@@H](Cc1cnc[nH]1)C(=O)N[C@@H](Cc1cnc[nH]1)C(=O)N[C@@H](CO)C(=O)N[C@H](C(=O)O)[C@@H](C)O (H-[βAla]ERLRRRIELCRRHHST-OH)
- Ratio (Homo sapiens [1]): 101%
- Ratio (Homo sapiens [2]): 118%
- Ratio (Homo sapiens [3]): 108%
- Ratio (MOLT-4 [4]): 107%
- Ratio (MOLT-4 [5]): 115%
- Ratio (MOLT-4 [6]): 113%
- Activity (MOLT-4 [7]): Toxic

SMILES: CC[C@H](C)[C@H](NC(=O)[C@H](CCCNC(=N)N)NC(=O)[C@H](CCCNC(=N)N)NC(=O)[C@H](CCCNC(=N)N)NC(=O)[C@H](CC(C)C)NC(=O)[C@H](CCCNC(=N)N)NC(=O)[C@H](CCC(=O)O)NC(=O)CCNC(=O)COCCOCCNC(=O)COCCOCCNC(=O)[C@@H](NC(=O)[C@@H]1CCCN1C(=O)[C@@H](NC(=O)[C@H](C)NC)C1CCCCC1)C(c1ccccc1)c1ccccc1)C(=O)N[C@@]1(C)CCC/C=C\CCC[C@@](C)(C(=O)N[C@@H](CCCNC(=N)N)C(=O)N[C@@H](Cc2cnc[nH]2)C(=O)N[C@@H](Cc2cnc[nH]2)C(=O)N[C@@H](CO)C(=O)N[C@H](C(=O)O)[C@@H](C)O)NC(=O)[C@H](CS)NC(=O)[C@H](CC(C)C)NC1=O (H-[NMeA][Chg]P[Dip][AEEA][AEEA][βAla]ERLRRRI[S5]LC[S5]RHHST-OH; staple (Z) 15-18)
- Ratio (Homo sapiens [2]): 88%
- Ratio (Homo sapiens [8]): 99%
- Ratio (Homo sapiens [9]): 76%
- Ratio (Homo sapiens [10]): 30%
- Ratio (MOLT-4 [5]): 110%
- Ratio (MOLT-4 [11]): 114%
- Ratio (MOLT-4 [12]): 99%
- Ratio (MOLT-4 [13]): 83%
- Ratio (Homo sapiens [14]): 72 to 75%
- Ratio (Homo sapiens [15]): 63 to 70%
- Ratio (Homo sapiens [16]): 48 to 67%
- Ratio (MOLT-4 [17]): 108%
- Ratio (MOLT-4 [18]): 112%
- Ratio (MOLT-4 [19]): 118%
- Activity (Homo sapiens [20]): Tde
- inhibition (Homo sapiens [21]): Active
- Activity (MOLT-4 [7]): Toxic
- Ratio (Homo sapiens [22]): 67%
- Ratio (Homo sapiens [23]): 52%
- Ratio (Homo sapiens [24]): 54%
- Ratio (Homo sapiens [25]): 56%
- Ratio (Homo sapiens [26]): 43%
- Ratio (Homo sapiens [27]): 62%
- Ratio (Homo sapiens [28]): 73%
- Ratio (Homo sapiens [29]): 63%
- Ratio (Homo sapiens [30]): 56%
- Ratio (Homo sapiens [31]): 43%
- Ratio (Homo sapiens [32]): 92%
- Ratio (Homo sapiens [33]): 108%
- Ratio (Homo sapiens [34]): 110%

SMILES: CC[C@H](C)[C@H](NC(=O)[C@H](CCCNC(=N)N)NC(=O)[C@H](CCCNC(=N)N)NC(=O)[C@H](CCCNC(=N)N)NC(=O)[C@H](CC(C)C)NC(=O)[C@H](CCCNC(=N)N)NC(=O)[C@H](CCC(=O)O)NC(=O)CCNC(=O)COCCOCCNC(=O)[C@@H](NC(=O)[C@@H]1CCCN1C(=O)[C@@H](NC(=O)[C@H](C)NC)C1CCCCC1)C(c1ccccc1)c1ccccc1)C(=O)N[C@@H](CCC(=O)O)C(=O)N[C@@H](CC(C)C)C(=O)N[C@@H](CS)C(=O)N[C@@H](CCCNC(=N)N)C(=O)N[C@@H](CCCNC(=N)N)C(=O)N[C@@H](Cc1cnc[nH]1)C(=O)N[C@@H](Cc1cnc[nH]1)C(=O)N[C@@H](CO)C(=O)N[C@H](C(=O)O)[C@@H](C)O (H-[NMeA][Chg]P[Dip][AEEA][βAla]ERLRRRIELCRRHHST-OH)
- Ratio (Homo sapiens [1]): 116%
- Ratio (Homo sapiens [2]): 100%
- Ratio (Homo sapiens [3]): 85%
- Ratio (MOLT-4 [4]): 115%
- Ratio (MOLT-4 [5]): 108%
- Ratio (MOLT-4 [6]): 99%
- Activity (MOLT-4 [7]): Toxic
